One experiment concerns the target hNAMPT protein (Homo sapiens (Human), UniProt P43490). Nature of the experiment: NAMPT enzyme assay (TR-FRET/HTRF, BodiPY ligand, anti 6His-Tb). The conditions noted are these: for IC50: NAMPT IC50 range class, read-out: IC50; for inhibition at 1 µM: compound concentration 1 μM, read-out: Percent Inhibition. The format is binding. Put shortly: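 Compound or DMSO was incubated for 1 h at room temperature, protected from light, with BodiPY ligand and hNAMPT labelled by terbium anti-6His antibody. The 520 nm to 486 nm emission ratio after 320 nm excitation gave inhibition versus vehicle, from which concentration-response curves yielded IC50.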
In general terms: TR-FRET usually uses a lanthanide donor and a delayed reading to cut background.

A further experiment relates to PC3 cells. Nature of the experiment: PC3 growth inhibition (Cell-titer glo, 72 hours). The class given is cell-based. The conditions noted are these: Homo sapiens, PC-3; compound concentration 1.667 μM; PC3 cells, 72 hours, Cell-titer glo; read-out: Percent Inhibition (PC3 growth inhibition). The procedure, abridged:
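Compounds in AIM serum-free medium were applied for 72 h at 37 °C, 5% CO2 to PC3 cells plated overnight from RPMI1640 culture. Luminescence after 10 min CellTiter-Glo, normalised to DMSO, gave % viability at 1 μM or 1.667 μM, or GI50/LD50.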

What is called IC50 is the concentration needed to halve the response being measured. The inhibition is the change of the read-out against control, counted positive when it falls.

SMILES strings stand for the structures.

hNAMPT protein, sequence (P43490 whole entry): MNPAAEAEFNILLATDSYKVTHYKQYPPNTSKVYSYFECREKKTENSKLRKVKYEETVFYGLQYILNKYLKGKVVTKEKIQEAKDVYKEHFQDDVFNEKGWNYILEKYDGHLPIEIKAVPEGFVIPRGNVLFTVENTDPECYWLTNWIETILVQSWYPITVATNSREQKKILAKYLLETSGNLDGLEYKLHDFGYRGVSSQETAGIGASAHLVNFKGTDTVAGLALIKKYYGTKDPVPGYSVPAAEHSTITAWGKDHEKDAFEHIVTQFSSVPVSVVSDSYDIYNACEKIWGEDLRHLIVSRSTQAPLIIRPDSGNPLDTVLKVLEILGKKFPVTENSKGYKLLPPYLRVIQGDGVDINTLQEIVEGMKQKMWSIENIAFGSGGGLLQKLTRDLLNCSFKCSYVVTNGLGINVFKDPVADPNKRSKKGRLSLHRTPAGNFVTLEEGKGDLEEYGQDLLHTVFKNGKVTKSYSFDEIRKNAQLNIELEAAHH

Turning to `COc1ccc(Cl)c(-c2nc3cc(C(=O)NCCCc4ncc[nH]4)ccc3nc2-c2ccc(F)cc2)c1` [Compound I-354, 3-(2-chloro-5-methoxyphenyl)-2-(4-fluorophenyl)-N-[3-(1H-imidazol-2-yl)propyl]quinoxaline-6-carboxamide], on hNAMPT protein, the IC50 was < 100 nM and the inhibition at 1 µM worked out at 97%. The inhibition at 1.667 µM in the experiment with PC3 cells turned out to be 2%.

For the compound `CCOc1cc(-c2nc3cc(C(=O)NCCCc4ncc[nH]4)ccc3nc2-c2ccc(F)cc2)ccc1F` [Compound I-355, 3-(3-ethoxy-4-fluorophenyl)-2-(4-fluorophenyl)-N-[3-(1H-imidazol-2-yl)propyl]quinoxaline-6-carboxamide], on hNAMPT protein, the IC50 is < 100 nM and the inhibition at 1 µM is > 99%. In addition, in the experiment on PC3 cells, the inhibition at 1.667 µM is 2%.

`O=C(NCCCc1ncc[nH]1)c1ccc2nc(OCc3c[nH]cn3)c(-c3ccc(F)cc3)nc2c1` [Compound I-356, 3-(4-fluorophenyl)-2-(1H-imidazol-4-ylmethoxy)-N-[3-(1H-imidazol-2-yl)propyl]quinoxaline-6-carboxamide]: on hNAMPT protein, the IC50 lay within 500 to 1000 nM and the inhibition at 1 µM is 63%. For the same compound, in the experiment with PC3 cells, the inhibition at 1.667 µM was determined as 4%.

Regarding `O=C(NCCCc1ncc[nH]1)c1ccc2nc(C3CC3)c(-c3ccc(F)cc3)nc2c1` [Compound I-357, 2-cyclopropyl-3-(4-fluorophenyl)-N-[3-(1H-imidazol-2-yl)propyl]quinoxaline-6-carboxamide], on hNAMPT protein, the IC50 lay within 100 to 500 nM and the inhibition at 1 µM stood at 83%. The inhibition at 1.667 µM in the experiment with PC3 cells is 1%.

Take `CCCOc1nc2ccc(C(=O)NCCCc3nnc[nH]3)cc2nc1-c1ccc(F)cc1` [Compound I-358, 3-(4-fluorophenyl)-2-propoxy-N-[3-(4H-1,2,4-triazol-3-yl)propyl]quinoxaline-6-carboxamide]: at hNAMPT protein, the IC50 was 100 to 500 nM and the inhibition at 1 µM came out at 78%. Further, the inhibition at 1.667 µM in the experiment on PC3 cells was determined as 3%.

Consider `CC(C)Oc1nc2ccc(C(=O)NCCCc3ccc(N)nc3)cc2nc1-c1ccc(F)cc1` [Compound I-359, N-[3-(6-aminopyridin-3-yl)propyl]-3-(4-fluorophenyl)-2-isopropoxyquinoxaline-6-carboxamide], for which, on hNAMPT protein, the IC50 was 500 to 1000 nM and the inhibition at 1 µM was 46%. Moreover, the inhibition at 1.667 µM with PC3 cells came out at 3%.

In the case of `O=C(NCCCc1ncc[nH]1)c1ccc2nc(O[C@H]3CCOC3)c(-c3ccc(Cl)cc3)nc2c1` [Compound I-360, 3-(4-chlorophenyl)-N-[3-(1H-imidazol-2-yl)propyl]-2-[(3S)-tetrahydrofuran-3-yloxy]quinoxaline-6-carboxamide], on hNAMPT protein, the IC50 is < 100 nM and the inhibition at 1 µM was > 99%. Also, the inhibition at 1.667 µM in the experiment with PC3 cells worked out at 2%.

Take `O=C(NCCCc1ncc[nH]1)c1ccc2nc(-c3ccc(F)cc3)c(-c3ccc(Cl)cc3)nc2c1` [Compound I-361, 3-(4-chlorophenyl)-2-(4-fluorophenyl)-N-[3-(1H-imidazol-2-yl)propyl]quinoxaline-6-carboxamide]: at hNAMPT protein, the IC50 is < 100 nM and the inhibition at 1 µM is 98%. In addition, in the experiment on PC3 cells, the inhibition at 1.667 µM amounted to 1%.

Take `Nc1ccc(CCCNC(=O)c2ccc3nc(N4CCOCC4)c(-c4ccc(F)cc4)nc3c2)cn1` [Compound I-362, N-[3-(6-aminopyridin-3-yl)propyl]-3-(4-fluorophenyl)-2-(morpholin-4-yl)quinoxaline-6-carboxamide]: at hNAMPT protein, the IC50 was 100 to 500 nM and the inhibition at 1 µM was 74%. In addition, in the experiment with PC3 cells, the inhibition at 1.667 µM was found to be 2%.

Consider `N#Cc1ccc(-c2nc3cc(C(=O)NCCCc4ncc[nH]4)ccc3nc2-c2ccc(F)cc2)s1` [Compound I-363, 3-(5-cyano-2-thienyl)-2-(4-fluorophenyl)-N-[3-(1H-imidazol-2-yl)propyl]quinoxaline-6-carboxamide], for which, at hNAMPT protein, the IC50 lay in the range of 100 to 500 nM and the inhibition at 1 µM came to 78%. Also, the inhibition at 1.667 µM in the experiment with PC3 cells was 3%.

As to `O=C(NCCCc1ncc[nH]1)c1ccc2nc(OCc3ccc(Cl)cc3)c(-c3ccc(F)cc3)nc2c1` [Compound I-364, 2-[(4-chlorobenzyl)oxy]-3-(4-fluorophenyl)-N-[3-(1H-imidazol-2-yl)propyl]quinoxaline-6-carboxamide], at hNAMPT protein, the IC50 was 100 to 500 nM and the inhibition at 1 µM came out at 73%. In addition, in the experiment on PC3 cells, the inhibition at 1.667 µM worked out at 4%.

Take `Cc1ccc(Cl)c(-c2nc3cc(C(=O)NCCCc4ncc[nH]4)ccc3nc2-c2ccc(F)cc2)c1` [Compound I-365, 3-(2-chloro-5-methylphenyl)-2-(4-fluorophenyl)-N-[3-(1H-imidazol-2-yl)propyl]quinoxaline-6-carboxamide]: on hNAMPT protein, the IC50 is < 100 nM and the inhibition at 1 µM stood at 97%. For the same compound, the inhibition at 1.667 µM in the experiment with PC3 cells amounted to 1%.

`O=C(NCCCc1ncc[nH]1)c1ccc2nc(C3CCOCC3)c(-c3ccc(F)cc3)nc2c1` [Compound I-366, 3-(4-fluorophenyl)-N-[3-(1H-imidazol-2-yl)propyl]-2-(tetrahydro-2H-pyran-4-yl)quinoxaline-6-carboxamide]: on hNAMPT protein, the IC50 fell in the range of 500 to 1000 nM and the inhibition at 1 µM stood at 53%. For the same compound, the inhibition at 1.667 µM in the experiment with PC3 cells is 1%.

As to `CC(C)Oc1nc2ccc(C(=O)NCc3ccc4nccn4c3)cc2nc1-c1ccc(F)c(F)c1` [Compound I-367, 3-(3,4-Difluorophenyl)-N-(imidazo[1,2-a]pyridin-6-ylmethyl)-2-isopropoxyquinoxaline-6-carboxamide], at hNAMPT protein, the IC50 lay in the range of 500 to 1000 nM and the inhibition at 1 µM was 50%. Moreover, the inhibition at 1.667 µM in the experiment on PC3 cells was determined as 0%.

`O=C(NCCCc1ncc[nH]1)c1ccc2nc(-c3ccc(F)cc3)c(-c3ccc(F)s3)nc2c1` [Compound I-368, 2-(4-fluorophenyl)-3-(5-fluoro-2-thienyl)-N-[3-(1H-imidazol-2-yl)propyl]quinoxaline-6-carboxamide]: on hNAMPT protein, the IC50 is < 100 nM and the inhibition at 1 µM was > 99%. Moreover, the inhibition at 1.667 µM with PC3 cells turned out to be 1%.

As for `O=C(NCCCc1ncc[nH]1)c1ccc2nc(-c3ccc(F)cc3)c(-c3ccc(Cl)c(C(F)(F)F)c3)nc2c1` [Compound I-369, 3-[4-chloro-3-(trifluoromethyl)phenyl]-2-(4-fluorophenyl)-N-[3-(1H-imidazol-2-yl)propyl]quinoxaline-6-carboxamide], on hNAMPT protein, the IC50 was < 100 nM and the inhibition at 1 µM came to 93%. For the same compound, the inhibition at 1.667 µM in the experiment with PC3 cells amounted to 2%.

In the case of `CC(=O)c1ccc(-c2nc3cc(C(=O)NCCCc4ncc[nH]4)ccc3nc2-c2ccc(F)cc2)s1` [Compound I-370, 3-(5-acetyl-2-thienyl)-2-(4-fluorophenyl)-N-[3-(1H-imidazol-2-yl)propyl]quinoxaline-6-carboxamide], at hNAMPT protein, the IC50 was in the range of 500 to 1000 nM and the inhibition at 1 µM amounted to 64%. Also, in the experiment on PC3 cells, the inhibition at 1.667 µM was determined as 3%.

In the case of `CCCOc1nc2ccc(C(=O)NCCCc3ncc[nH]3)cc2nc1-c1ccc(F)cc1` [Compound I-371, 3-(4-fluorophenyl)-N-[3-(1H-imidazol-2-yl)propyl]-2-propoxyquinoxaline-6-carboxamide], at hNAMPT protein, the IC50 is < 100 nM and the inhibition at 1 µM came out at 97%. Also, the inhibition at 1.667 µM in the experiment with PC3 cells is 3%.

The record behind these values is patent publication US10144742B2 (Millennium Pharmaceuticals, Inc., priority 2014, dated 2018).
